Laboratory results from patent publication US20130059907A1, “WOGONIN-CONTAINING PHARMACEUTICAL COMPOSITION FOR INHIBITING CANCER STEM CELLS GROWTH AND APPLICATION THEREOF” (National Taiwan Normal University, priority 2011, published 2013).

What was measured:
A549 cells [1] = test: MTT assay (cell proliferation), A549; format: cell-based; details: FIG. 1B
Procedure: NSCLC cell lines A549, NCI-H460, NCI-H520 and normal lung cell line MRCS were obtained from Bioresource Collection and Research Center (BCRC, Taiwan). A549 cell line was cultured with F12K medium (21127, GIBCO, Carlsbad, U.S.A.). Both NCI-H460 and NCI-H520 cell lines were cultured with RPMI1640 medium (23400, GIBCO, Carlsbad, U.S.A.). MRCS cell line was cultured with MEM medium (41500, GIBCO, Carlsbad, U.S.A.). All media mentioned above contained 10% FBS (10437, GIBCO, Carlsbad, U.S.A.). All cultures were maintained in an incubator (Thermo forma 370, Waltham, U.S.A.) with 5% CO2 at 37° C.
Cells were seeded at 1×10^4 cells per well in a 24-well plate for 16 hours. After that, a sample such as the wogonin solutions with different concentrations and the extract of S. baicalensis (denoted as “SB”) was added into 24-well plate directly, and cultured at 37° C. for 24, 48, and 72 hours, respectively.
Thiazolyl blue tetrazolium bromide (MTT, m5655, Sigma, St. Louis, U.S.A.) solution was prepared in a concentration of 5.5 mg/ml with phosphate buffered saline (PBS) filtered by 0.22 μm membrane. The MTT solution (50 μl) was added to the wells of 24-well plates with A549, NCI-H460, NCI-H520, and MRCS cell lines cultured after 24, 48, and 72 hours. The plates were incubated at 37° C. for 2 hours and then moved out. The media of the wells were removed. […]

A549 cells [2] = test: Side population analysis (Hoechst33342, with or without reserpine); format: cell-based; details: A549, dose of IC50, 48 hours, FIGS. 5A and 5B
Procedure: A549 cells were seeded in the number of about 3×10^5 in 10 cm dish to give adequate number of cells for analysis. The cells were treated with the extract of S. baicalensis and the wogonin solution in the dose of IC50 for 48 hours. Then, the treated cells were harvested by typsinization and centrifugation. The harvested cells were re-suspended in the number of 1×10^6 cells/ml in culture medium containing 2% FBS, Hoechst33342 dye (5 μg/ml, Invitrogen, Carlsbad, U.S.A.) was added with or without reserpine (50 μM, Sigma, St. Louis, U.S.A.) as a blocking reagent. The cells were further incubated at 37° C. for 2 hours under frequently gentle vortex to ensure uniform staining, and then washed with PBS. PI staining (20 ng/ml) was used to determine the live/dead cells. In order to set up the fluorescence compensation, single staining and non-staining groups were prepared. The cell samples were filtered with nylon mesh (35 μm) to prevent cell aggregation. PI-positive dead cells were primary excluded to avoid false positive signals. Then, the Hoechst blue and red dot plotting was used to determine the side population. A gate of a side population was defined by the diminishing region of two samples groups, i.e. with or without reserpine. The percentages of the side population were further analyzed by Flowjo software (TreeStar, Ashland, U.S.A.).

SMILES: COc1c(O)cc(O)c2c(=O)cc(-c3ccccc3)oc12 [wogonin solution, wogonin hydrate]
- inhibition of A549 cell line (concentration dependence) (A549 cells [1]; A549, 40, 80, 120, and 160 μM, 48 hours): increased as the concentration of the wogonin solution increases
- IC50 (A549 cells [1]; Homo sapiens, A549, 48 hours, read-out: half maximal inhibitory concentration (IC50)): ~85 µM
- side population (SP) (A549 cells [2]): significantly diminished
